Laboratory results: ChEMBL document CHEMBL3991601, “The target landscape of clinical kinase drugs” (Science, 2017)
The source made the active and inactive calls. Cut-off read from the data, not from the text of the source, for most assays here: actives have a measured Kd and inactives only a lower limit.

Assays:
[1] = molecular target: Cyclin-dependent kinase 17 (Homo sapiens, UniProt Q00537)
[2] = molecular target: Chromodomain-helicase-DNA-binding protein 4 (Homo sapiens, UniProt Q14839)
[3] = molecular target: T1, ATP-dependent RNA helicase DHX30 (Homo sapiens, UniProt Q7L2E3)
T1 sequence (Q7L2E3 whole entry): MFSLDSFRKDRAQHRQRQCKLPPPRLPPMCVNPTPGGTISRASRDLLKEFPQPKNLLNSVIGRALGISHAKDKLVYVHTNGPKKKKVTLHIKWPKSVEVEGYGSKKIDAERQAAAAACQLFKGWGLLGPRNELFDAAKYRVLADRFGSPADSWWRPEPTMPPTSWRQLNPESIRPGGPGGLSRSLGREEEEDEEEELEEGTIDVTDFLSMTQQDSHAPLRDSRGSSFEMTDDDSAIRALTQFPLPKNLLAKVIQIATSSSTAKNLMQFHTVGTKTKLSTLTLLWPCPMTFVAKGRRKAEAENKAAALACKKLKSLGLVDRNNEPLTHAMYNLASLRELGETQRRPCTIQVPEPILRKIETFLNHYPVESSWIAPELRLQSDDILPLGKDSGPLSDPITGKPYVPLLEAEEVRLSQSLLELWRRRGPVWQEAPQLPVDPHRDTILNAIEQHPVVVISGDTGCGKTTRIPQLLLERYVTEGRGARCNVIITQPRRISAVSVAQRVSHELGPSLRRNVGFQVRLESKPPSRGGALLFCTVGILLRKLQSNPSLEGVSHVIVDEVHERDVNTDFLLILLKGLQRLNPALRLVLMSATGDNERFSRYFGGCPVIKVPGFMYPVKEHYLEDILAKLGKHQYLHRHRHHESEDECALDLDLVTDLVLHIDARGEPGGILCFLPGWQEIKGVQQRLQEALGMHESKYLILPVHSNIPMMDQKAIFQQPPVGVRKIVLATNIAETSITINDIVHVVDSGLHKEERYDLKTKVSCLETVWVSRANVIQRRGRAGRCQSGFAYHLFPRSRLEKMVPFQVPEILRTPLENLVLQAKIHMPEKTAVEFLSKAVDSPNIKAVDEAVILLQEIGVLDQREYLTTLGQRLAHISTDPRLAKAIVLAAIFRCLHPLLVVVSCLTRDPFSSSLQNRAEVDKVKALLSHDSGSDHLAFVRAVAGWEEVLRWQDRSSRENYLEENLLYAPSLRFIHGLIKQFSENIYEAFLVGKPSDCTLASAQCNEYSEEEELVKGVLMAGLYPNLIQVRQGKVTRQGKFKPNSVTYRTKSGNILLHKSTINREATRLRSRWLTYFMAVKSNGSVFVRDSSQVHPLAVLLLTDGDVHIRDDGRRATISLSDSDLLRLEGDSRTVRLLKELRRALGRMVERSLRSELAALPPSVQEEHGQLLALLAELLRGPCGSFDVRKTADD

[4] = molecular target: Epidermal growth factor receptor (Homo sapiens, UniProt P00533)
Ephrin type-A receptor 4 = Ephrin type-A receptor 4 (Homo sapiens, UniProt P54764)
Ephrin type-A receptor 4, sequence (P54764 whole entry): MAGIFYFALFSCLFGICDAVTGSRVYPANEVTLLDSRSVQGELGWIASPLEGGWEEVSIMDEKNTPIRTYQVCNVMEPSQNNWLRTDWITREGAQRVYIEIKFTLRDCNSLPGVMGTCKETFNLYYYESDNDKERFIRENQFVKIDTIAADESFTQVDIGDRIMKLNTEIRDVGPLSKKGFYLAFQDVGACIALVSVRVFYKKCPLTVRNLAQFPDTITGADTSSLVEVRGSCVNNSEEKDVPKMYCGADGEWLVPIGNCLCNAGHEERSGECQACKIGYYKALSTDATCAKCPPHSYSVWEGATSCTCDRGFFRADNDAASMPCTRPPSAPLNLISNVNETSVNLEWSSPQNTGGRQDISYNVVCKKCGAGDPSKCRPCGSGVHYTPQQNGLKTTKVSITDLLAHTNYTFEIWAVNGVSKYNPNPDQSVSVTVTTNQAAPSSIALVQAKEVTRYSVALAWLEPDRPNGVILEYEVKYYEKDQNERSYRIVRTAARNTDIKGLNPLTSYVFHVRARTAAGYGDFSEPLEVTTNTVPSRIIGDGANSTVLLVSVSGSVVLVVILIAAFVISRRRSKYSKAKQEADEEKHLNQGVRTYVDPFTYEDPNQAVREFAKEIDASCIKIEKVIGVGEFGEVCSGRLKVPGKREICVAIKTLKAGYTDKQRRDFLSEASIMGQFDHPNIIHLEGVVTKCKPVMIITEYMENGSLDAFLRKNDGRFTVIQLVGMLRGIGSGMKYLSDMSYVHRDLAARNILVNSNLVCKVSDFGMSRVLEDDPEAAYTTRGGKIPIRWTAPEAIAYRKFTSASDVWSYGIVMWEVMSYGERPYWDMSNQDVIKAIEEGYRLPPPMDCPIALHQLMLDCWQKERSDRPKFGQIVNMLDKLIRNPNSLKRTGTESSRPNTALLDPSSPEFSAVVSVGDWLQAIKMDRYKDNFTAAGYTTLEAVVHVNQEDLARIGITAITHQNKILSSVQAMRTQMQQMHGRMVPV

[5] = molecular target: Serine/threonine-protein kinase/endoribonuclease IRE1 (Homo sapiens, UniProt O75460)
[6] = molecular target: Dual specificity mitogen-activated protein kinase kinase 2 (Homo sapiens, UniProt P36507)
[7] = molecular target: Mitogen-activated protein kinase 10 (Homo sapiens, UniProt P53779)
[8] = molecular target: NADH dehydrogenase [ubiquinone] 1 alpha subcomplex subunit 13 (Homo sapiens, UniProt Q9P0J0)
NADH dehydrogenase [ubiquinone] 1 alpha subcomplex subunit 13, sequence (Q9P0J0 whole entry, one chain of several): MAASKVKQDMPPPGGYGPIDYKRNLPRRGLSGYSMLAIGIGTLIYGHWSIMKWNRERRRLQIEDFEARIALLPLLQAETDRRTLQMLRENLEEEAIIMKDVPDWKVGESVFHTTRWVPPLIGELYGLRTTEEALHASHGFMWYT

[9] = molecular target: Ribosomal protein S6 kinase alpha-3 (Homo sapiens, UniProt P51812)
[10] = molecular target: Ribosomal protein S6 kinase alpha-5 (Homo sapiens, UniProt O75582)
Ribosomal protein S6 kinase alpha-5, sequence (O75582 whole entry): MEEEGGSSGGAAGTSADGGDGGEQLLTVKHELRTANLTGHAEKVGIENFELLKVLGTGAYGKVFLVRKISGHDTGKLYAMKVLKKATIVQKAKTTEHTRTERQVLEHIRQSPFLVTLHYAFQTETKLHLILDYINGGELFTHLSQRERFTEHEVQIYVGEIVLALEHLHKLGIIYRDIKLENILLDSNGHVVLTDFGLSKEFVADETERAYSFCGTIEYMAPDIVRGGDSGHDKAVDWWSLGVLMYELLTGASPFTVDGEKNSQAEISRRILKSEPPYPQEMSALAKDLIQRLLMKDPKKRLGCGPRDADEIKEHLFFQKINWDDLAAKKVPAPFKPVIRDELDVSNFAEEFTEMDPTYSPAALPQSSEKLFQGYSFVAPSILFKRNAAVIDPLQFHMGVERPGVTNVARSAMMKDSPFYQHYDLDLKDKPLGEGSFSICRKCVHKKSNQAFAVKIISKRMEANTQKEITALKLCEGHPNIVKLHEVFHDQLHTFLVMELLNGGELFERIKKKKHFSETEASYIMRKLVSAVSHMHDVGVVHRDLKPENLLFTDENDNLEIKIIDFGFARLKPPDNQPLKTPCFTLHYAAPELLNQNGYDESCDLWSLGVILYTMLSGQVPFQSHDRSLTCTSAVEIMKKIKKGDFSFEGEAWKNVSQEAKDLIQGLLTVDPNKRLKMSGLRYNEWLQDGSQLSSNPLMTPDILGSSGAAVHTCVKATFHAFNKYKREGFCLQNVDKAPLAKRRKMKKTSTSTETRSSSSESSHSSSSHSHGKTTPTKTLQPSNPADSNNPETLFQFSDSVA

Septin-9 = molecular target: T2, Septin-9 (Homo sapiens, UniProt Q9UHD8)
T2 sequence (Q9UHD8 whole entry): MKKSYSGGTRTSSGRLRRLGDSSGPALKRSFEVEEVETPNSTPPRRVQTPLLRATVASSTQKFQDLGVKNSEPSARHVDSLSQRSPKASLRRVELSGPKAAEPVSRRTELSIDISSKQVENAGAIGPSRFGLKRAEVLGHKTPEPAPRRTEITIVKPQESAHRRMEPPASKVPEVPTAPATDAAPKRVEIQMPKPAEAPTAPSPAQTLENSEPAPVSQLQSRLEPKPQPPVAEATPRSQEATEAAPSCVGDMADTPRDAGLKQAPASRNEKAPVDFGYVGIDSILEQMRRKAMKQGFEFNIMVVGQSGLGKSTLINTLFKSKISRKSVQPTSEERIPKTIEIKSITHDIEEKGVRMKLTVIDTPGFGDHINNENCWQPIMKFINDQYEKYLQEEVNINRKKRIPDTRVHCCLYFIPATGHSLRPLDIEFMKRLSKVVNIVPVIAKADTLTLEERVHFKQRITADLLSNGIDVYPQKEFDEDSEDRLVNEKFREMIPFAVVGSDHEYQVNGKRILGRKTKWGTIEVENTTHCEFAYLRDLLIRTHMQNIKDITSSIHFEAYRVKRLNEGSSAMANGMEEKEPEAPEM

[11] = molecular target: Serine/threonine-protein kinase 10 (Homo sapiens, UniProt O94804)
Serine/threonine-protein kinase 10, sequence (O94804 whole entry): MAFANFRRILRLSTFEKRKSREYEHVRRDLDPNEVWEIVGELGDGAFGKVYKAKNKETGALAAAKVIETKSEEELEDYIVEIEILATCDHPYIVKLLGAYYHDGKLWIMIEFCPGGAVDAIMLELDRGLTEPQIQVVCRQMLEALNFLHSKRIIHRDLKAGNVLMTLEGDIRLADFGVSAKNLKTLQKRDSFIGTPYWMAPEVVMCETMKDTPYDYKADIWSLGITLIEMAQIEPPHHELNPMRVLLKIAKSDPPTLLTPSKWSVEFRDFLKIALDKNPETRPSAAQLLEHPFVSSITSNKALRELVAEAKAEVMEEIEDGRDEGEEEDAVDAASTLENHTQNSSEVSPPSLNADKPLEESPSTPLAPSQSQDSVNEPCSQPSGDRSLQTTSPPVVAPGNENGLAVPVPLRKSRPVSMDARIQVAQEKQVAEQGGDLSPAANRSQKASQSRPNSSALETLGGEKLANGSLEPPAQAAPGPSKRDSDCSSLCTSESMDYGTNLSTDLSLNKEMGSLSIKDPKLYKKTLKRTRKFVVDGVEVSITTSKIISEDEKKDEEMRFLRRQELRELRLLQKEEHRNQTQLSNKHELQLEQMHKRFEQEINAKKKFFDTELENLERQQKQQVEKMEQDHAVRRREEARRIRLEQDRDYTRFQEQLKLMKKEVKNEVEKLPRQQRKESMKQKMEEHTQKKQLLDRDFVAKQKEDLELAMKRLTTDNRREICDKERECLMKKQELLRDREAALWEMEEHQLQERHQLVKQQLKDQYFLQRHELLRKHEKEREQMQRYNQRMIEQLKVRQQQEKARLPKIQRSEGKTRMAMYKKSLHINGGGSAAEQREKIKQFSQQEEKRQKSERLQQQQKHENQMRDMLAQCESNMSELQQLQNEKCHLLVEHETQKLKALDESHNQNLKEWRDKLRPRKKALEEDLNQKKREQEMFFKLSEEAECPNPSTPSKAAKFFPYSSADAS

DNA topoisomerase 2-beta = DNA topoisomerase 2-beta (Homo sapiens, UniProt Q02880)
DNA topoisomerase 2-beta, sequence (Q02880 whole entry): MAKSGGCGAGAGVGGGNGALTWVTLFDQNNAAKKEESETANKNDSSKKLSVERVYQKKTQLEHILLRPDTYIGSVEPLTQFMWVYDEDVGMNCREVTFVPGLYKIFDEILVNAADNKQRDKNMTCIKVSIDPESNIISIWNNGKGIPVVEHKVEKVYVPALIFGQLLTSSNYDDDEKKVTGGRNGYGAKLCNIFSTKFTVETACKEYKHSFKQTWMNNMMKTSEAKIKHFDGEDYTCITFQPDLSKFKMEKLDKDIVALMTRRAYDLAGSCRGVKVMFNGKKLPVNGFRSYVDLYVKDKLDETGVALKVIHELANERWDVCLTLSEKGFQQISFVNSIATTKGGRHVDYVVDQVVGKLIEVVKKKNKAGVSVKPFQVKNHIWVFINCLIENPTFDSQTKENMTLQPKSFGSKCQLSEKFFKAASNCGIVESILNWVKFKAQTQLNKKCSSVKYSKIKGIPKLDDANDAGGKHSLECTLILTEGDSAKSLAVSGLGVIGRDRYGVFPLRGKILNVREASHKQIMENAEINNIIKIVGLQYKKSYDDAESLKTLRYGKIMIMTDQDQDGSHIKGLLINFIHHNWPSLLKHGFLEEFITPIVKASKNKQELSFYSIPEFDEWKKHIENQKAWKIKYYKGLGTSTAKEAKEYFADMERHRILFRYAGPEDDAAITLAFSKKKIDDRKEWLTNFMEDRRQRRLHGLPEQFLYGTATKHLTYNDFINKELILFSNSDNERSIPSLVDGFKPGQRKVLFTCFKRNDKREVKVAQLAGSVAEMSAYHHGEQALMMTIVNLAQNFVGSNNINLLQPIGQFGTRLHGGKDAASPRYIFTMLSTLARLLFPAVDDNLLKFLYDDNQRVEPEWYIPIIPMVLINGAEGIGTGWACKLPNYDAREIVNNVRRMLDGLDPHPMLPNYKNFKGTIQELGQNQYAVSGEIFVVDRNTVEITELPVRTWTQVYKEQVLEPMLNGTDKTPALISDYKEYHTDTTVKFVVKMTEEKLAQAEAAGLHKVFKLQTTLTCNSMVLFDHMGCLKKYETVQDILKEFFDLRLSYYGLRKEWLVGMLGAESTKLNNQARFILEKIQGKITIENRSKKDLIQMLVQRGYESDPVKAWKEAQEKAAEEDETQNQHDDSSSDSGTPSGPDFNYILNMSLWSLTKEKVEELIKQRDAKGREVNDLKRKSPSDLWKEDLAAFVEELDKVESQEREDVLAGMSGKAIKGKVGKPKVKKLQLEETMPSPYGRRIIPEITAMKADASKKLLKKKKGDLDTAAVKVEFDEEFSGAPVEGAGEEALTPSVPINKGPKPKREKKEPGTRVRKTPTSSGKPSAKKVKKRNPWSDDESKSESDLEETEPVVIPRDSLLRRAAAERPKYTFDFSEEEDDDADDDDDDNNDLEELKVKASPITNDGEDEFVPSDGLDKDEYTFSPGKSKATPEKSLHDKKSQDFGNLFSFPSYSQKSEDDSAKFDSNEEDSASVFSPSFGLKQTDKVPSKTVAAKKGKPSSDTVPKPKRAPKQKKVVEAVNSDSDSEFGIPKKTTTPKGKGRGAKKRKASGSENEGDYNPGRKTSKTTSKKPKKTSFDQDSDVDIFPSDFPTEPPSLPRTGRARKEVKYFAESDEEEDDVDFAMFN
Note: in the data inactive means no Kd found up to 30 µM.

Cyclin-dependent kinase 17, sequence (Q00537 whole entry): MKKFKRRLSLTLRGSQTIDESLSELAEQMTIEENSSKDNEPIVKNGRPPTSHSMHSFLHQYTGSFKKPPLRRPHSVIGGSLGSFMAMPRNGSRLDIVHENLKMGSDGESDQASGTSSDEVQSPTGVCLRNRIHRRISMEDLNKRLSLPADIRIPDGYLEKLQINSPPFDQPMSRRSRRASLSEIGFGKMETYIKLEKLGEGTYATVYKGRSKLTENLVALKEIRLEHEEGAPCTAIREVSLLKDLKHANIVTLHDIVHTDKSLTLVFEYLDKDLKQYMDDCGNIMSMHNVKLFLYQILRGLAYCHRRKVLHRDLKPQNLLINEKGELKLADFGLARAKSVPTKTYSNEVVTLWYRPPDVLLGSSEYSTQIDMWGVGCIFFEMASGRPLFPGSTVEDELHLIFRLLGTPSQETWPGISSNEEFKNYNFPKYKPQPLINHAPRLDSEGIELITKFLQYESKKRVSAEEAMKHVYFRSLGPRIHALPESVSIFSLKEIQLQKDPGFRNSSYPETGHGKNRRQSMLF

Kd [1]	Kd [2]	Kd [3]	Kd [4]	Kd (Ephrin type-A receptor 4)	Kd [5]	Kd [6]	Kd [7]	Kd [8]	Kd [9]	Kd [10]	Kd (Septin-9)	Kd [11]	Kd (DNA topoisomerase 2-beta)	SMILES
> 30 µM (inactive)	> 30 µM (inactive)	> 30 µM (inactive)	> 30 µM (inactive)	> 30 µM (inactive)	> 30 µM (inactive)	> 30 µM (inactive)	> 30 µM (inactive)	> 30 µM (inactive)	> 30 µM (inactive)	> 30 µM (inactive)	> 30 µM (inactive)	> 30 µM (inactive)	> 30 µM (inactive)	NC1(c2ccc(-c3nc4ccn5c(=O)[nH]nc5c4cc3-c3ccccc3)cc2)CCC1 [MK-2206]
> 30 µM (inactive)	> 30 µM (inactive)	> 30 µM (inactive)	> 30 µM (inactive)	> 30 µM (inactive)	> 30 µM (inactive)	> 30 µM (inactive)	4.7 µM (active)	> 30 µM (inactive)	> 30 µM (inactive)	> 30 µM (inactive)	> 30 µM (inactive)	> 30 µM (inactive)	> 30 µM (inactive)	CN(C[C@@H]1COCCO1)S(=O)(=O)Nc1ccc2ccc3ncc(-c4cnn(C)c4)cc3c(=O)c2c1 [MK-2461]
> 30 µM (inactive)	> 30 µM (inactive)	> 30 µM (inactive)	> 30 µM (inactive)	> 30 µM (inactive)	> 30 µM (inactive)	> 30 µM (inactive)	> 30 µM (inactive)	> 30 µM (inactive)	> 30 µM (inactive)	> 30 µM (inactive)	> 30 µM (inactive)	> 30 µM (inactive)	> 30 µM (inactive)	Cn1cc(-c2cnc3ccc4ccc(CS(=O)(=O)NCc5ccccn5)cc4c(=O)c3c2)cn1 [MK-8033]
0.014 µM (active)	> 30 µM (inactive)	> 30 µM (inactive)	> 30 µM (inactive)	> 30 µM (inactive)	> 30 µM (inactive)	> 30 µM (inactive)	> 30 µM (inactive)	> 30 µM (inactive)	0.1 µM (active)	30 µM (active)	> 30 µM (inactive)	> 30 µM (inactive)	> 30 µM (inactive)	Cc1nc(Nc2n[nH]c3c2CN(C(=O)N[C@H](CN(C)C)c2ccccc2)C3(C)C)c2sccc2n1 [PF-03758309]
> 30 µM (inactive)	> 30 µM (inactive)	> 30 µM (inactive)	> 30 µM (inactive)	> 30 µM (inactive)	> 30 µM (inactive)	> 30 µM (inactive)	> 30 µM (inactive)	> 30 µM (inactive)	> 30 µM (inactive)	> 30 µM (inactive)	> 30 µM (inactive)	> 30 µM (inactive)	> 30 µM (inactive)	Cc1cnc(NC(=O)Nc2cc(Br)c(C)cc2OC[C@@H]2CNCCO2)cn1 [RABUSERTIB]
> 30 µM (inactive)	> 30 µM (inactive)	> 30 µM (inactive)	> 30 µM (inactive)	> 30 µM (inactive)	> 30 µM (inactive)	> 30 µM (inactive)	> 30 µM (inactive)	> 30 µM (inactive)	> 30 µM (inactive)	> 30 µM (inactive)	> 30 µM (inactive)	> 30 µM (inactive)	> 30 µM (inactive)	CO[C@H]1C[C@@H]2CC[C@@H](C)[C@@](O)(O2)C(=O)C(=O)N2CCCC[C@H]2C(=O)O[C@H]([C@H](C)C[C@@H]2CC[C@@H](OP(C)(C)=O)[C@H](OC)C2)CC(=O)[C@H](C)/C=C(\C)[C@@H](O)[C@@H](OC)C(=O)[C@H](C)C[C@H](C)/C=C/C=C/C=C/1C [RIDAFOROLIMUS]
> 30 µM (inactive)	> 30 µM (inactive)	> 30 µM (inactive)	> 30 µM (inactive)	> 30 µM (inactive)	> 30 µM (inactive)	> 30 µM (inactive)	> 30 µM (inactive)	> 30 µM (inactive)	> 30 µM (inactive)	> 30 µM (inactive)	> 30 µM (inactive)	> 30 µM (inactive)	> 30 µM (inactive)	N#CC1(c2ccc(NC(=O)c3cccnc3NCc3ccncc3)cc2)CCCC1 [RIVOCERANIB]
> 30 µM (inactive)	> 30 µM (inactive)	> 30 µM (inactive)	> 30 µM (inactive)	> 30 µM (inactive)	> 30 µM (inactive)	> 30 µM (inactive)	> 30 µM (inactive)	> 30 µM (inactive)	> 30 µM (inactive)	> 30 µM (inactive)	> 30 µM (inactive)	> 30 µM (inactive)	> 30 µM (inactive)	O=c1[nH]ccc2cc(OC3CCNCC3)ccc12 [SAR-407899 FREE BASE]
> 30 µM (inactive)	> 30 µM (inactive)	> 30 µM (inactive)	> 30 µM (inactive)	> 30 µM (inactive)	> 30 µM (inactive)	2.36 µM (active)	> 30 µM (inactive)	> 30 µM (inactive)	> 30 µM (inactive)	> 30 µM (inactive)	> 30 µM (inactive)	4.39 µM (active)	> 30 µM (inactive)	Cn1cc(-c2cnn3c(N)c(Br)c([C@@H]4CCCNC4)nc23)cn1 [SCH-900776]
> 30 µM (inactive)	> 30 µM (inactive)	> 30 µM (inactive)	> 30 µM (inactive)	> 30 µM (inactive)	> 30 µM (inactive)	> 30 µM (inactive)	> 30 µM (inactive)	> 30 µM (inactive)	> 30 µM (inactive)	> 30 µM (inactive)	> 30 µM (inactive)	> 30 µM (inactive)	> 30 µM (inactive)	CO[C@H]1C[C@@H]2CC[C@@H](C)[C@@](O)(O2)C(=O)C(=O)N2CCCC[C@H]2C(=O)O[C@H]([C@H](C)C[C@@H]2CC[C@@H](OC(=O)C(C)(CO)CO)[C@H](OC)C2)CC(=O)[C@H](C)/C=C(\C)[C@@H](O)[C@@H](OC)C(=O)[C@H](C)C[C@H](C)/C=C/C=C/C=C/1C [TEMSIROLIMUS]
> 30 µM (inactive)	> 30 µM (inactive)	> 30 µM (inactive)	0.038 µM (active)	0.44 µM (active)	> 30 µM (inactive)	> 30 µM (inactive)	> 30 µM (inactive)	> 30 µM (inactive)	> 30 µM (inactive)	> 30 µM (inactive)	> 30 µM (inactive)	1.91 µM (active)	> 30 µM (inactive)	COc1cc2c(Nc3ccc(Cl)c(Cl)c3F)ncnc2cc1OC[C@@H]1C[C@@H]2CN(C)C[C@@H]2C1 [TESEVATINIB]
